System: CAP-M8-specific CD8^+ effector T-cell line
Type: cell-based, murine

TNF-α
increase in peptide-specific proliferation over unmanipulated DC: 28%

Source: patent US6969609B1 (priority 1998, dated 2005)
